Test results taken from patent publication US9062088B2, “CDK-inhibiting pyrrolopyrimidine carboxamide derivative or pharmaceutically acceptable salt thereof, and pharmaceutical composition containing the same as active ingredient for preventing or treating hepatocellular carcinoma” (SNU R&DB Foundation, priority 2010, dated 2015).

Experiments:
[1] = test system: SNU-354 xenografted tumor; experiment: SNU-354 cancer xenograft, tumor growth; type: in vivo; settings: 5 times/week for 3 weeks, nude mice
Experimental: (§1) Male nude mice at 5˜6 weeks were purchased from Central Lab. Animal Inc. (Republic of Korea). The mice were raised in the test animal laboratory at College of Pharmacy, Seoul National University. All the experiments with test animals were performed by the protocol set by Institute of Laboratory Animal Resources, Seoul National University. 1×10^7 cells of the human hepatocellular carcinoma cell line SNU-354 were suspended in 200 μl of PBS, which was injected into the right front paw of the mouse by subcutaneous injection, followed by observation until the xenograft tumor grew to 100±30 mm^3. The mice having tumors reaching the proper size were divided into three groups (n=8). One of the groups was used as the control (treated with vehicle) and the other two groups were treated with the compound of Example 2 at the concentrations of 4 mg/kg and 20 mg/kg respectively, once a day for 3 weeks (5 times/week) by intraperitoneal injection. The control group was treated with 5% ethanol and 30% polyethylene glycol 200 (Fluka, Netherlands). The administration schedule was marked on data. Tumor size, body weight and other conditions of the animal were observed every day until the tumor size reached 2000 mm^3. The tumor size was calculated by V=a×b×c×π/6 (a=long axis of the tumor, b=short axis of the tumor, c=height of the tumor). 33 days after the treatment, the mice were sacrificed. […]

[2] = test system: SNU-354 cells; experiment: Flow cytometry, sub G1 ratio change (Experimental Example 3); type: cell-based, human; settings: 10 μM, 24 hours, vehicle = 1.0
Experimental: SNU-354 cells were seeded in a 90 mm dish, to which vehicle and the compounds of Examples 2˜6 were treated at the concentration of 10 μM each for 24 hours. The cells were collected and washed with cold PBS, followed by reaction in 500 μl of cold 70% ethanol at 4° C. for overnight to fix the cells. The cells were washed with 500 μl of PBS three times, followed by reaction with 500 μl of PBS containing 50 μg/mL propidium iodide (P1) and 50 μl of 1 mg/mL RNAse A at room temperature for 30 minutes in the darkness. Fluorescence of the P1 stained cell was measured by using FACS caliber flow cytometer and cell quest program (Becton Dickinson Immunocytometry Systems, CA, USA). Sub G1 ratio changes of SNU-354 cells induced by the compounds were measured by FACS analysis.

[3] = test system: Mcl-1, survivin, XIAP; experiment: Western blotting of Mcl-1, survivin, XIAP proteins in SNU-354 cells; type: cell-based, human; settings: FIG. 13
Experimental: After treating the compound of Example 2 to SNU-354 cells, cell pellet was lysed with lysis buffer (0.5% triton X-100, 20 mM Tris-HCl (pH 7.5), 2 mM magnesium chloride, 1 mM DTT, 1 mM EGTA, 50 mM β-glycerophosphate, 25 mM sodium fluoride, 1 mM Na3VO4, 2 μg/mL leupeptin, 2 μg/mL pepstatin A, 100 μg/mL phenylmethylsulfonyl fluoride, and 1 μg/mL antipain) at 4° C. for 1 hour, followed by quantification of protein. A proper amount of protein was electrophoresed on SDS-PAGE gel and then transferred onto polyvinylidene difluoride membrane (Millipore Co., Bedford, Mass.). The membrane was reacted in inhibiting solution (PBS, 5% skim milk, 0.1% tween-20) at room temperature for 1˜2 hours. The membrane was reacted with the primary antibody (goat anti-phospho-Rb, rabbit anti-nucleolin) diluted in the inhibiting solution (1:1000). Then, the membrane was washed with PBST, followed by reaction with the proper secondary antibody (horseradish peroxidase (HRP) conjugated) at room temperature for 1 hour.
Experiment was performed by the same manner as described in step 2 of Experimental Example 1 except that rabbit anti-Mcl-1 (from Santa Cruz Biochemicals, CA, USA), rabbit anti-survivin, rabbit anti-XIAP (from Cell Signaling, MA, USA), and rabbit anti-Actin (from Sigma, USA) were used as primary antibodies.

[4] = Body weight of xenograft mice; type: in vivo, nude mice; settings: 4 mg/kg and 20 mg/kg intraperitoneal; FIG. 21
Experimental: as §1

[5] = test system: SNU-354 xenografted tumor; experiment: TUNEL assay and cleaved caspase-3 immunohistochemistry of xenografted tumor; type: in vivo, nude mice; settings: 4 and 20 mg/kg vs control; FIG. 23-A
Experimental: All the xenografted tumors and liver tissues extracted above were fixed in 36% formaldehyde solution (Junsei Chemical Co., Ltd, Tokyo, JAPAN), followed by paraffin embedding. The embedded tissues were cut into 5 μm sections. H&E staining and TUNEL assay were performed for examining apoptosis with those sections. The expression of cleaved caspase-3 in the tissue section was measured by using cleaved caspase-3 monoclonal antibody (Cell Signaling, MA, USA). ABC peroxidase (Dako Cytomation California, Inc., CA, USA) labeling was performed for immunological sensitization and the results are shown in FIG. 23. As shown in FIG. 23-A, TUNEL positive spots and caspase-3 positive spots were observed more in the group treated with the compound of Example 2 than in the control. […] As shown in FIG. 23-B, it was investigated whether or not the compound of Example 2 could affect normal liver tissues.

[6] = target: T1, Cdk2/cyclin A (Homo sapiens, UniProt P24941); experiment: In vitro kinase activity assay, histone H1 phosphorylation by Cdk2/cyclin A; type: biochemical; settings: for Phosphorylation (%) Cdk2: 0 nM = 100%
T1 construct: purchased Upstate
Experimental: To kinase assay buffer (50 mM Tris (pH 7.4), 10 mM magnesium chloride, 1 mM EGTA, 40 mM β-glycerophosphate, 0.1 mM Na3VO4, 1 mM DTT, 0.1 μg/mL leupeptin, 0.1 μg/mL pepstatin A, 0.1 μg/mL antipain and 1 mM phenylmethylsulfonyl fluoride) were added 5 μg histone H1 as a substrate, 20 ng Cdk1/cyclin B or 40 ng Cdk2/cyclin A recombinant protein (Upstate, NY, USA) as an enzyme, 2.5 μCi [γ-32P]ATP, and 100 μM MgAc/ATP. The total reaction volume was adjusted to 50 μl. The compound of Example 2 was added to the reaction mixture, followed by inducing kinase reaction at 30° C. for 20 minutes. Upon completion of the reaction, the reaction mixture proceeded to electrophoresis on 12% SDS-polyacrylamide gel. Phosphorylation levels of Cdk1 and Cdk2 over the concentrations of the compound of Example 2 were confirmed by autoradiography, and the results are shown in FIG. 1, FIG. 2, and Table 1.
The intensity of bands was analyzed by densitometry (GS-800, Bio-Rad).

- Phosphorylation (%) Cdk2 ([6]; 10 nM): 86.5%
- Phosphorylation (%) Cdk2 ([6]; 20 nM): 75.0%
- Phosphorylation (%) Cdk2 ([6]; 40 nM): 59.0%
- Phosphorylation (%) Cdk2 ([6]; 50 nM): 50%
- Phosphorylation (%) Cdk2 ([6]; 60 nM): 43.0%
- Phosphorylation (%) Cdk2 ([6]; 80 nM): 39.2%
- Phosphorylation (%) Cdk2 ([6]; 100 nM): 4.5%
- IC50 ([6]; histone H1 phosphorylation): 50 nM
SMILES: CC(C)C(=O)OC[C@@H]1O[C@H](n2cnc(N)c3c(C(N)=O)c(Br)nc2-3)[C@H](O)[C@H]1O [Example 2, ((2S,3R,4R,5S)-5-(4-amino-6-bromo-5-carbamoyl-1H-pyrrolo[2,3-d]pyrimidin-1-yl)-3,4-dihydroxy-tetrahydrofuran-2-yl)methyl isobutyrate]
- growth of the tumor reduced at average, compared with the control ([1]; 4 mg/kg/day intraperitoneal): 15%
- growth of the tumor reduced at average, compared with the control ([1]; 20 mg/kg/day intraperitoneal): 47%
- sub G1 ratio change [2]: 5.9
- Mcl-1, Survivin and XIAP protein level [3]: down-regulated
- weight change of test animals [4]: no weight change
- TUNEL positive spots and caspase-3 positive spots in xenografted tumor [5]: observed more
